Drawing on ChEMBL document CHEMBL4177528, “Recent developments in drug discovery against the protozoal parasites Cryptosporidium and Toxoplasma” (Bioorg Med Chem Lett, 2017), this text covers IC50, Activity and Survival for 13 compounds.

Experiment [1] concerns Toxoplasma gondii. Kind of experiment: Antiparasitic activity against Toxoplasma gondii after 4 days by chlorophenol red-beta-D-galactosidase based assay. The format is functional, organism-based. To be noted: 96 h.
For the next experiment, the system named is Cryptosporidium parvum. Briefly: Antiparasitic activity against Cryptosporidium parvum infected in human HCT8 cells incubated for 24 hrs post 3 hrs infection by Hoechst 33258 staining based epifluorescence microscopy. The format is functional.
Experiment [2] has as its system Toxoplasma gondii. Briefly: Antiparasitic activity against tachyzoite stage of Toxoplasma gondii RH infected in Swiss Webster mouse assessed as mouse survival for 60 days post infection. The format is functional.
The test system of experiment [3] is Toxoplasma gondii. Kind of experiment: Antiparasitic activity against Toxoplasma gondii assessed as population with apicoplast loss after 4 days by Hoechst staining based microscopy. The format is functional.
Experiment [4] has as its system Toxoplasma gondii. Briefly: Antiparasitic activity against tachyzoite stage of Toxoplasma gondii infected in LLC-MK2 cells after 6 hrs. The format is functional.

On to `O=[N+]([O-])c1cccc2ncccc12`, for which the half-maximal inhibitory concentration (IC50) (in general, the midpoint of a concentration-inhibition curve) in the experiment with Toxoplasma gondii [1] lay in the range of 5 to 6 µM.
On to `Cc1cccc(-n2ncc3c(O)nc(-n4nc(C)cc4NC(=O)c4cc5ccccc5o4)nc32)c1`, for which, in the experiment with Cryptosporidium parvum, the Activity is 0.12 µM.
For `Clc1ccc2ccccc2n1`, the IC50 in the experiment on Toxoplasma gondii [1] lay within 5 to 6 µM.
For `CCOC(=O)c1cn(C2CC2)c2cc(N3CCN(Cc4ccccc4)CC3)c(F)cc2c1=O`, the Survival with Toxoplasma gondii [2] was 13 - 25%.
Take `[O-][n+]1cccc2ccccc21`: in the experiment on Toxoplasma gondii [1], the concentration for half-maximal inhibition (IC50) is 5 to 6 µM.
In the experiment with Toxoplasma gondii [1], `FC(F)(F)c1ccc2c(NCCCN3CCN(c4cccc5nc(Cl)ccc45)CC3)ccnc2c1` registered a 50% inhibitory concentration (IC50) of 0.425 µM. Moreover, the Activity in the experiment with Toxoplasma gondii [3] was 40 - 45%.
As for `O=C(O)c1cn(C2CC2)c2cc(N3CCN(CC45CC6CC(CC(C6)C4)C5)CC3)c(F)cc2c1=O`, the Survival with Toxoplasma gondii [2] is given as 13 - 25%.
Turning to `COc1cccc(C(=O)NC(c2ccc(C)cc2)c2cc(Cl)c3cccnc3c2O)c1` (centres undefined), the Activity in the experiment on Cryptosporidium parvum was determined as 0.054 µM.
In the experiment with Toxoplasma gondii [4], `O=C1C2=C(C(=O)c3ccccc31)[C@H]1Oc3ccc(Br)cc3[C@H]1CO2` displayed an Activity of under 1 µM.
On to `CCOC(=O)c1cn(C2CC2)c2cc(N3CCNCC3)c(F)cc2c1=O` [CIPROFLOXACIN ETHYL ESTER], for which the Survival in the experiment on Toxoplasma gondii [2] was 13 - 25%.
Same read-out and setting: to `O=C(O)c1cn(C2CC2)c2cc(N3CCNCC3)c(F)cc2c1=O` [CIPROFLOXACIN] belongs 13 - 25%.
The compound `Oc1cccc2cccnc12` [OXYQUINOLINE] displayed an IC50 in the experiment with Toxoplasma gondii [1] of 0.213 µM.
In turn, `c1ccc2ncccc2c1` [QUINOLINE] gave an IC50 in the experiment on Toxoplasma gondii [1] of 5 to 6 µM.
